Measured values: patent US6906078B2, “Method of using (H+/K+) ATPase inhibitors as antiviral agents” (Pharmacia Corporation, priority 1994, dated 2005)
Like-named read-outs stand apart in the source and are kept apart here.

Assays:
[1] = test system: HCMV (strain AD169); experiment: Antiviral assay: HCMV antigen ELISA in infected human foreskin fibroblasts (MRHF); format: cell-based, human cytomegalovirus; conditions: Human betaherpesvirus 5, Fibroblast; MRHF cells, HCMV AD169, moi 0.2, 96 hours; read-out: HCMV cell EC50
Description: These complimentary assays tested the ability of a compound to inhibit the production of new virus and the toxicity of the compound to the host cells. It was important that both assays be performed simultaneously in order to compare the results directly since, toxicity may indirectly reduce viral yield.
Viral yield was estimated by measuring the amount of a viral antigen produced 4 days post infection with a monoclonal antibody to an abundant “immediate early” viral protein. An enzyme-linked (horseradish peroxidase) secondary antibody specific to the primary (mouse) antibody was used to measure the amount of viral antigen. Test compounds were diluted to 2-times the desired final concentration in DMEM+5% FBS. One hundred microliters of this solution was placed in each well of a 96-well plate. This was performed once for the antiviral 96-well plate and again for a cytotoxicity plate. Two controls were also included for both plates; a no drug control and a ganciclovir control. Ganciclovir was included because it has known antiviral activity for HCMV. All cells were prepared by harvesting human foreskin fibroblasts, MRHF, with trypsin and re-suspending at a concentration of 5×10^5 cells per ml in DMEM. Infected cells were prepared by infecting these with HCMV (strain AD169) at a multiplicity of infection=0.2. One hundred microliters of uninfected cells (5×10^4 cells) were added to the appropriate wells of the cytotoxicity plate. In a similar manner 100 μl of infected cells (5×10^4 cells) were added to the appropriate wells of the antiviral plate. Additionally, uninfected cells not treated with test compound were included as controls on the antiviral plate. Plates were incubated for 96 hours at 37° C. in 5% CO2 atmosphere and processed to measure the amount of viral antigen and toxicity.
The following was performed on the antiviral plate only. Media was removed and cells were fixed with 1:1 acetone:methanol for 15 minutes at −20° C. Fixative was removed and cells were washed once with PBS containing 0.05% Tween20. In order to block nonspecific binding of antibodies each well was incubated with PBS containing 3% (w/v) bovine serum albumin (BSA) for 1 hour at 22° C. The blocking solution was removed and the cells were washed once with PBS containing 0.05% Tween20 before incubating with 1:100 dilution of primary antibody in PBS containing 3% BSA for 2 hours at 22° C. The primary antibody was a monoclonal antibody (mouse source) specific to the immediate early nuclear antigen of HCMV and was commercially available (Dupont). The 10 antibody solution was removed and the plate was rinsed 5 times with PBS containing 1% (v/v) Triton X-100 (PBST) before incubating with secondary antibody diluted 1:1000 in PBS containing 3% BSA for 2 hours at 22° C. The secondary antibody (goat source) recognized the murine-specific determinants of the 1° antibody and was covalently linked to horseradish peroxidase (Sigma). The plate was rinsed 5 times with PBST and once with deionized water before adding 100 μl TMB substrate solution and incubating 30 minutes at 22° C. The reaction was stopped by adding 100 μL of phosphoric acid and the OD at 450 nm recorded. TMB (3,3′,5,5′ tetramethylbenzidine) was the substrate for the horseradish peroxidase linked to the 2° antibody. […] Antiviral activity was calculated by comparing the amount of viral antigen produced in drug treated wells with that produced in wells absent of drug.

[2] = test system: gastric acid secretion; experiment: Inhibition of gastric acid secretion in gastric fistula beagle dogs (histamine-stimulated); format: in vivo; conditions: Canis lupus familiaris, 4 h, histamine-stimulated, four-hour period, read-out: Gastric-Fistula Beagle % Inhibition (3 mg/kg dose)
Outline: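 Conscious, 18 h-fasted female beagles with gastric (or duodenal) cannulas received compound i.v., i.g. or i.d. after a 30-min basal period, then 4 h i.v. histamine dihydrochloride at 15 mcg/kg/h. Gastric volume, acid concentration and total acid output collected every 30 min; percent inhibition versus controls, ED50 from dose-response curves.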

[3] = test system: gastric acid secretion; experiment: Inhibition of gastric acid secretion in meal-stimulated Pavlov pouch dog; format: in vivo, beagle dogs; conditions: 3 mg/kg, four-hour period
Experimental: Adult female beagle dogs weighing 6 to 10 kilograms were obtained from Laboratory Research Enterprises (Kalamazoo, Mich.) or from Hazelton Research Animals (Cumberland, Va.). Surgical implantation of a Thomas-type gastric cannula into an innervated Pavlov pouch of each dog was performed by the method reported by L. Burrows et al., J. Surgical Res., 4, 147 (1964). After recovery from surgery, the dogs were trained to stand quietly, fully conscious, in Pavlov-type dog restraining slings. All dogs were deprived of food, but not water, for 24 hours prior to each assay. Basal acid secretion was measured by collecting from the cannulas for 30 minutes before dosing with a test compound. Solutions of the test compounds in iso-osmotic phosphate buffer (pH 7.4) were given either intravenously or directly into the Pavlov pouch. After 30 minutes the pouch was drained. The dogs were then fed 320 grams of dog food and gastric acid secretions were collected each half hour for four hours. Controls were determined in the same way except that only food (i.e., no test compound) was administered.
Data were analyzed for three different variables: volume of gastric juice, acid concentration, and total acid output. Percent inhibition for the four-hour experimental period was determined for each parameter by comparison with 3 to 4 controls. Estimates of ED50 were determined from dose response curves.

Row | SMILES | EC50 [1] | inhibition in vivo at 3 mg/kg ([2]; intraduodenal, 3 mg/kg i.d.) | melting point | inhibition in vivo at 3 mg/kg ([2]; iv, 3 mg/kg i.v.) | Pavlov-Pouch Dog % Inhibition (dose (mg/kg)) [3]
1 | COc1ccc2[nH]c([S+]([O-])Cc3ncc(C)c(OC)c3C)nc2c1 (stereo not shown) [omeprazole, reference compound] | 93 µM | – | – | – | –
2 | Cc1ccc(C[S+]([O-])c2nc3ccccc3[nH]2)c(N)c1C (stereo not shown) [Example 53, 2-[(1H-Benzimidazol-2-ylsulfinyl)methyl]-5,6-dimethylbenzenamine ¼ hydrate] | 13 µM | 79% | – | – | –
3 | Nc1ccccc1C[S+]([O-])c1nc2cc(Cl)ccc2[nH]1 (stereo not shown) [Example 43, 2-[[(5-Chloro-1H-benzimidazol-2-yl)sulfinyl]-methyl]benzenamine] | 23 µM | – | 165 to 166 °C | – | –
4 | Cc1ccc2[nH]c([S+]([O-])Cc3ccccc3N)nc2c1 (stereo not shown) [Example 41, 2-[[(5-Methyl-1H-benzimidazol-2-yl)sulfinyl]-methyl]benzenamine] | 59 µM | – | 170 to 171 °C | – | –
5 | COc1ccc2[nH]c([S+]([O-])Cc3c(N)cc(C)c(OC)c3C)nc2c1 (stereo not shown) [Example 78, 2-[[(5-Methoxy-1H-benzimidazol-2-yl)sulfinyl]methyl]-4-methoxy-3,5-dimethylbenzenamine] | 22 µM | 31% | 149 to 155 °C | – | –
6 | COc1ccc(N)c(C[S+]([O-])c2nc3ccccc3[nH]2)c1 (stereo not shown) [Example 20, 2-[(1H-Benzimidazol-2-ylsulfinyl)methyl]-4-methoxybenzenamine] | – | – | 152 to 153 °C | 37% | 22 (3 mg/kg) %
